13 molecules from patent US20250326748A1, “COMPOUNDS AND METHODS FOR MODULATING SPLICING” (REMIX THERAPEUTICS INC., priority 2022, published 2025) can be followed below.

By IC50 is commonly meant the concentration that inhibits the measured activity by half. By AC50 is commonly meant the concentration giving half of the maximal activity seen.

Molecules are shown by their SMILES. Where two headings read alike, the source gives them in different places. Where only a bound is given, the exact number is not on record here.

The subject of one data set is HTT mRNA. The data set can be described thus: Splicing RT-qPCR assay, HTT canonical (CJ) and alternative (AJ) junction mRNA. The following applies: Homo sapiens; for IC50: canonical junction mRNA; for AC50: alternative junction mRNA, read-out: HTT AJ (AC50, increase in AJ mRNA). Type of data set: cell-based, human. The gist of the method: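 One-step RT-qPCR on cell lysates quantified CJ and AJ isoforms, normalized to PPIA for A673 or GAPDH/GUSB for K562. Cells were exposed for 24 h at 37° C to 11 concentrations in 3-fold steps up to 10 uM, with DMSO ≤0.25%. A673 were grown in DMEM and K562 in IMDM, both with 10% FBS.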
In general terms: Quantitative PCR measures a nucleic acid by following its amplification.

Another data set concerns HiBiT-tagged HTT protein. The data set is described as follows: HiBiT protein abundance assay, HTT (K562 HiBiT knock-in). Type of data set: cell-based, human. The following applies: HiBiT knock-in cells, 24 hours. Put shortly: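 Endogenously HiBiT-tagged K562 knock-in lines treated 24 h at 37 °C with 10-point 3-fold dilutions (top 10 μM final, DMSO ≤0.25%) in IMDM+1% FBS. Lytic Nano-Glo luminescence normalized to DMSO and unmodified K562 controls; four-parameter fit gives 50%-abundance concentration (IC50).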
(In general: HiBiT is a short tag that completes a luciferase, so light tracks the accessible tagged protein.)

A further data set deals with Target C. The data set can be described thus: HiBiT protein abundance assay, Target C (K562 HiBiT knock-in). Type of data set: cell-based, human. As to conditions: HiBiT knock-in cells, 24 hours. Put shortly:
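K562 HiBiT knock-in cells (10000/well) in IMDM + 1% FBS were treated for 24 h at 37° C. with a 10-point 3-fold dilution series (top 10 μM final), with DMSO ≤0.25%. Unmodified K562 served as baseline. HiBiT lytic luminescence was normalized to controls, and IC50 was interpolated at 50% from a four-parameter fit.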

Another data set has as its system K562 cells. The data set is described as follows: Cell viability, Cell Titer Glo 2.0 assay, K562. As to conditions: 72 hours. In general terms: ATP-based viability assays read luminescence as a measure of living cells.
Setting [1] is: 24 h, RT-qPCR, A673 or K562 cells, 24 hours treatment, read-out: HTT CJ (IC50, decrease in CJ mRNA).
[2] abbreviates: qPCR panel, read-out: HTT CJ (decrease in CJ mRNA levels, IC50).
[3] abbreviates: RT-qPCR, A673 or K562 cells, 24 hours treatment.

As for `C[C@@H]1CN(c2cnc3nc(-c4ccc5nn(C)cc5c4)cc(Cl)c3c2)C[C@H](C)N1` [Compound 320, 4-chloro-6-[(3R,5S)-3,5-dimethylpiperazin-1-yl]-2-(2-methylindazol-5-yl)-1,8-naphthyridine], the IC50 in the data set on HTT mRNA (setting [1]) is greater than 10000 nM; in the data set with HTT mRNA (setting [2]), greater than 10000 nM; in the data set on HiBiT-tagged HTT protein, 1000 to 10000 nM; in the data set with Target C, greater than 10000 nM. Besides, the AC50 in the data set with HTT mRNA (setting [3]) is greater than 10000 nM. In the data set on K562 cells, the “Effect on Cell Viability, K562” value is “C (1000-9999 nM)”.

Consider `C[C@@H]1CN(c2cnc3nc(-c4cc(C#N)c5nn(C)cc5c4)cc(Cl)c3c2)C[C@H](C)N1` [Compound 325, 5-(4-chloro-6-((3R,5S)-3,5-dimethylpiperazin-1-yl)-1,8-naphthyridin-2-yl)-2-methyl-2H-indazole-7-carbonitrile 2,2,2-trifluoroacetate], for which the IC50 is greater than 10000 nM in the data set with HTT mRNA (setting [1]), greater than 10000 nM in the data set on HTT mRNA (setting [2]), 1000 to 10000 nM in the data set on HiBiT-tagged HTT protein and greater than 10000 nM in the data set on Target C. Further, the AC50 with HTT mRNA (setting [3]) is greater than 10000 nM. In addition, the “Effect on Cell Viability, K562” value in the data set on K562 cells is given as “C (1000-9999 nM)”.

As for `Cc1cn2nc(-c3ccc4cc(N5C[C@@H](C)N[C@@H](C)C5)cnc4n3)cc(C)c2n1` [Compound 330], the IC50 with HTT mRNA (setting [1]), in the data set with HTT mRNA (setting [2]), in the data set on HiBiT-tagged HTT protein and in the data set on Target C was 100 to 1000 nM throughout. For the same molecule, in the data set on HTT mRNA (setting [3]), the AC50 is 100 to 1000 nM. Besides, in the data set on K562 cells, the “Effect on Cell Viability, K562” value is listed as “B (100-1000 nM)”.

Turning to `Cc1cn2nc(-c3cc(Cl)c4cc(N5C[C@@H](C)N[C@@H](C)C5)cnc4n3)cc(C)c2n1` [Compound 335, 4-chloro-2-{2,8-dimethylimidazo[1,2-b]478pyridazine-6-yl}-6-[(3R,5S)-3,5-dimethylpiperazin-1-yl]-1,8-naphthyridine], the IC50 fell in the range of 100 to 1000 nM in the data set with HTT mRNA (setting [1]), 100 to 1000 nM with HTT mRNA (setting [2]), 100 to 1000 nM in the data set with HiBiT-tagged HTT protein and 1000 to 10000 nM in the data set with Target C. Moreover, the AC50 with HTT mRNA (setting [3]) lay in the range of 1000 to 10000 nM. For the same molecule, the “Effect on Cell Viability, K562” value with K562 cells is “B (100-1000 nM)”.

Take `Cc1cn2nc(-c3cc(Cl)c4cc(N5C[C@H](C)N[C@@H](C)C5)cnc4n3)cc(C)c2n1` [Compound 336]: the IC50 with HTT mRNA (setting [1]), with HTT mRNA (setting [2]), in the data set on HiBiT-tagged HTT protein and in the data set on Target C was 100 to 1000 nM in each case. The concentration at half-maximal activity (AC50) in the data set on HTT mRNA (setting [3]) is 100 to 1000 nM. For the same molecule, in the data set on K562 cells, the “Effect on Cell Viability, K562” value is reported as “B (100-1000 nM)”.

Consider `CN[C@H]1CCN(c2cnc3nc(-c4cc(C)c5nc(C)cn5n4)cc(Cl)c3c2)C1` [Compound 340], for which the IC50 is 100 to 1000 nM in the data set on HTT mRNA (setting [1]), 100 to 1000 nM in the data set with HTT mRNA (setting [2]), less than 100 nM in the data set on HiBiT-tagged HTT protein and 100 to 1000 nM in the data set with Target C. Besides, in the data set with HTT mRNA (setting [3]), the AC50 lay within 100 to 1000 nM. Also, the “Effect on Cell Viability, K562” value in the data set on K562 cells is recorded as “B (100-1000 nM)”.

As for `CN[C@@H]1CCN(c2cnc3nc(-c4cc(C)c5nc(C)cn5n4)cc(Cl)c3c2)C1` [Compound 341], the IC50 with HTT mRNA (setting [1]), in the data set on HTT mRNA (setting [2]), in the data set with HiBiT-tagged HTT protein and with Target C was less than 100 nM in each case. Besides, the AC50 with HTT mRNA (setting [3]) is less than 100 nM. Further, the “Effect on Cell Viability, K562” value in the data set on K562 cells is “A (<100 nM)”.

For `C[C@@H]1CN(c2cnc3nc(-c4cc5cn(C)nc5cc4O)ccc3c2)C[C@H](C)N1` [Compound 343], the IC50 in the data set with HTT mRNA (setting [1]) lay within 100 to 1000 nM; with HTT mRNA (setting [2]), 1000 to 10000 nM; with HiBiT-tagged HTT protein, 1000 to 10000 nM; with Target C, 1000 to 10000 nM. For the same molecule, in the data set on HTT mRNA (setting [3]), the AC50 was in the range of 1000 to 10000 nM. In the data set with K562 cells, the “Effect on Cell Viability, K562” value is listed as “B (100-1000 nM)”.

Consider `Cc1cn2nc(-c3cc(Cl)c4cc(N5CCC(N(C)C)CC5)cnc4n3)cc(C)c2n1` [Compound 348], for which the IC50 in the data set on HTT mRNA (setting [1]), with HTT mRNA (setting [2]), in the data set with HiBiT-tagged HTT protein and in the data set on Target C was 100 to 1000 nM each time. Further, in the data set on HTT mRNA (setting [3]), the AC50 lay in the range of 100 to 1000 nM. Besides, the “Effect on Cell Viability, K562” value in the data set with K562 cells is listed as “B (100-1000 nM)”.

`Cc1cn2nc(-c3cc(Cl)c4cc(N5CCC(N6CCC6)CC5)cnc4n3)cc(C)c2n1` [Compound 349]: the half-inhibitory concentration (IC50) with HTT mRNA (setting [1]), with HTT mRNA (setting [2]), in the data set with HiBiT-tagged HTT protein and in the data set with Target C was 100 to 1000 nM each time. Moreover, the AC50 in the data set with HTT mRNA (setting [3]) was in the range of 100 to 1000 nM. In the data set on K562 cells, the “Effect on Cell Viability, K562” value is “B (100-1000 nM)”.

As to `Cc1cn2cc(-c3ccc4cc(N5C[C@@H](C)N[C@@H](C)C5)cnc4n3)cc(F)c2n1` [Compound 350], the IC50 was greater than 10000 nM in the data set with HTT mRNA (setting [1]), greater than 10000 nM in the data set with HTT mRNA (setting [2]), 1000 to 10000 nM in the data set with HiBiT-tagged HTT protein and 1000 to 10000 nM in the data set with Target C. The AC50 with HTT mRNA (setting [3]) was greater than 10000 nM. In addition, the “Effect on Cell Viability, K562” value with K562 cells is “C (1000-9999 nM)”.

Regarding `Cc1c(O)c(-c2cc(Cl)c3cc(N4CCNC5(CC5)C4)cnc3n2)cc2cn(C)nc12` [Compound 381], the IC50 in the data set with HTT mRNA (setting [1]) lay within 100 to 1000 nM; with HTT mRNA (setting [2]), 100 to 1000 nM; in the data set on HiBiT-tagged HTT protein it was 100 to 1000 nM; in the data set with Target C, 1000 to 10000 nM. The AC50 with HTT mRNA (setting [3]) is 100 to 1000 nM. Further, the “Effect on Cell Viability, K562” value in the data set with K562 cells is reported as “B (100-1000 nM)”.

In the case of `Cc1cn2nc(-c3ccc4c(Cl)c(N5C[C@H](C)N[C@@H](C)C5)cnc4n3)cc(C)c2n1` [Compound 393, 5-chloro-2-{2,8-dimethylimidazo[1,2-b]pyridazin-6-yl}-6-[(3S,5S)-3,5-dimethylpiperazin-1-yl]-1,8-naphthyridine], the IC50 with HTT mRNA (setting [1]), with HTT mRNA (setting [2]), with HiBiT-tagged HTT protein and in the data set on Target C was 100 to 1000 nM throughout. Also, in the data set on HTT mRNA (setting [3]), the AC50 is 100 to 1000 nM. In addition, the “Effect on Cell Viability, K562” value in the data set with K562 cells is “B (100-1000 nM)”.
